{"source": "paper PMC11233931", "about": "“Remodeling tumor‐associated macrophage for anti‐cancer effects by rational design of irreversible inhibition of mitogen‐activated protein kinase‐activated protein kinase 2” (MedComm, 2024)", "experiment_in_all_cases": "Eurofins kinase selectivity profile against 380 other human recombinant kinases (Table S2)", "assay_type_in_all_cases": "biochemical", "key": {"[1]": {"biological_target": "T1, 380 human recombinant protein kinases (Homo sapiens, UniProt P36507)", "T1 construct": "purchased Eurofins (Celle Lévescault)", "T1 sequence (P36507 whole entry)": "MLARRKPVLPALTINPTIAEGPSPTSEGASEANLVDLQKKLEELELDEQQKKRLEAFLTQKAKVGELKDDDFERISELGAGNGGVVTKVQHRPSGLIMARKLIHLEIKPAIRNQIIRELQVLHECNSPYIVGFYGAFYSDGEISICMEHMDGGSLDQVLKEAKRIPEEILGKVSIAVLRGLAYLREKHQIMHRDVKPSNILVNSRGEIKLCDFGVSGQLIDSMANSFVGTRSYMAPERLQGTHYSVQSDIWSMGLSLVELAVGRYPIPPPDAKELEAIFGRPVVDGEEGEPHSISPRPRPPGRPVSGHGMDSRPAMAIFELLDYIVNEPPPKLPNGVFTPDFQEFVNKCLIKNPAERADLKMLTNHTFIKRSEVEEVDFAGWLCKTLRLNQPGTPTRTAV", "details": "MEK2(h), read-out: Inhibition rate", "method_in_brief": "(§1)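 The inhibitor was sent to a contract lab and screened at various concentrations against 380 human recombinant protein kinases. This served as a counter-screen for MK2 specificity.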"}, "[2]": {"biological_target": "T2, 380 human recombinant protein kinases (Homo sapiens, UniProt Q6IQ55)", "T2 construct": "purchased Eurofins (Celle Lévescault)", "T2 sequence (Q6IQ55 whole entry)": "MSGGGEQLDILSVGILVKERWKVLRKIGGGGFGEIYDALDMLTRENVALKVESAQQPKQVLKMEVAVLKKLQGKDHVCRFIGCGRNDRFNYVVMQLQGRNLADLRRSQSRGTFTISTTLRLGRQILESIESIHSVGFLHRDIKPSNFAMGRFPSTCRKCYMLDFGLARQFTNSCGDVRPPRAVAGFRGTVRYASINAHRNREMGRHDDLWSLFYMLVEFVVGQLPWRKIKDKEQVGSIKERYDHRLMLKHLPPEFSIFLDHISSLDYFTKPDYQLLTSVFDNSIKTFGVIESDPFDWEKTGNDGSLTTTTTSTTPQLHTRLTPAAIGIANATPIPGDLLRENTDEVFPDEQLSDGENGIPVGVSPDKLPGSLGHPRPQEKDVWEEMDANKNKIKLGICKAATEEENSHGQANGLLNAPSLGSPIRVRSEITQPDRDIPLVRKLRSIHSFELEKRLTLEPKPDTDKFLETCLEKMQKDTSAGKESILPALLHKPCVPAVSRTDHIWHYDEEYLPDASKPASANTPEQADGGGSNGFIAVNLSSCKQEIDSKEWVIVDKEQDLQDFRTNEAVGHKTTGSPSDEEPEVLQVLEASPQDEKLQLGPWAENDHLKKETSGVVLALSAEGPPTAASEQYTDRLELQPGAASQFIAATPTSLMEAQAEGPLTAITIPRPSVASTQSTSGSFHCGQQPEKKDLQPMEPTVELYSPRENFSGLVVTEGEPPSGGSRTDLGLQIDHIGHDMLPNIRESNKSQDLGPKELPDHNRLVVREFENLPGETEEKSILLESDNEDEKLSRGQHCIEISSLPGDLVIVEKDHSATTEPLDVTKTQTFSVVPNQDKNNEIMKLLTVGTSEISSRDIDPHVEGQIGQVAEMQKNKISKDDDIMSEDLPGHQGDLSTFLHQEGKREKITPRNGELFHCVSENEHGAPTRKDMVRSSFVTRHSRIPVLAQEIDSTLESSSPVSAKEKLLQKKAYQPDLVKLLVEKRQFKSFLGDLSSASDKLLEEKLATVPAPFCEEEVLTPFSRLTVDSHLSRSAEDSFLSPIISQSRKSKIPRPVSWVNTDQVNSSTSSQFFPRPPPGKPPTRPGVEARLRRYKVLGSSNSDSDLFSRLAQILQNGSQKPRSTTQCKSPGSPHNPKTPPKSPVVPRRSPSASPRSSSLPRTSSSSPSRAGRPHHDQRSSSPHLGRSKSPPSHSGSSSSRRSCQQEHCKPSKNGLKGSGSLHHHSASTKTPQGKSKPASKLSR", "details": "TTBK2(h), read-out: Inhibition rate (%)", "method_in_brief": "as §1"}, "[3]": {"biological_target": "T3, 380 human recombinant protein kinases (Homo sapiens, UniProt Q8NG66)", "T3 construct": "purchased Eurofins (Celle Lévescault)", "T3 sequence (Q8NG66 1-645)": "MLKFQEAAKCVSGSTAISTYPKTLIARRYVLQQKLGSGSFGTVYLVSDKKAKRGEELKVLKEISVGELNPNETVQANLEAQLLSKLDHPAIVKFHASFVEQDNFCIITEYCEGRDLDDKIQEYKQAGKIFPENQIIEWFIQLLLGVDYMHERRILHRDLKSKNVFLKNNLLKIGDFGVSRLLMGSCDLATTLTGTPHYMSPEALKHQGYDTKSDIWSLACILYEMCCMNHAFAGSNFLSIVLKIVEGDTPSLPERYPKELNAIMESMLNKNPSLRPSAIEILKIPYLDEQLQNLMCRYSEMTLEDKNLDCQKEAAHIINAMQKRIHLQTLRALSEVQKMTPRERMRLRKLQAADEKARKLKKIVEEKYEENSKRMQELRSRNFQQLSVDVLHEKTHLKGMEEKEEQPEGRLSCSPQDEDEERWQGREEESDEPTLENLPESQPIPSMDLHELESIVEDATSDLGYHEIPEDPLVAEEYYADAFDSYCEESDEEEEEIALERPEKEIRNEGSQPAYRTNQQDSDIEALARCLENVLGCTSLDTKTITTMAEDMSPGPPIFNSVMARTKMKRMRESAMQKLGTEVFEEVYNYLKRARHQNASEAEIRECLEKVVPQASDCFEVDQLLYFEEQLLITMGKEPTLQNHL", "details": "NEK11(h), read-out: Inhibition rate", "method_in_brief": "as §1"}, "[4]": {"biological_target": "T4, 380 human recombinant protein kinases (Homo sapiens, UniProt Q9NRM7)", "T4 construct": "purchased Eurofins (Celle Lévescault)", "T4 sequence (Q9NRM7 1-1088)": "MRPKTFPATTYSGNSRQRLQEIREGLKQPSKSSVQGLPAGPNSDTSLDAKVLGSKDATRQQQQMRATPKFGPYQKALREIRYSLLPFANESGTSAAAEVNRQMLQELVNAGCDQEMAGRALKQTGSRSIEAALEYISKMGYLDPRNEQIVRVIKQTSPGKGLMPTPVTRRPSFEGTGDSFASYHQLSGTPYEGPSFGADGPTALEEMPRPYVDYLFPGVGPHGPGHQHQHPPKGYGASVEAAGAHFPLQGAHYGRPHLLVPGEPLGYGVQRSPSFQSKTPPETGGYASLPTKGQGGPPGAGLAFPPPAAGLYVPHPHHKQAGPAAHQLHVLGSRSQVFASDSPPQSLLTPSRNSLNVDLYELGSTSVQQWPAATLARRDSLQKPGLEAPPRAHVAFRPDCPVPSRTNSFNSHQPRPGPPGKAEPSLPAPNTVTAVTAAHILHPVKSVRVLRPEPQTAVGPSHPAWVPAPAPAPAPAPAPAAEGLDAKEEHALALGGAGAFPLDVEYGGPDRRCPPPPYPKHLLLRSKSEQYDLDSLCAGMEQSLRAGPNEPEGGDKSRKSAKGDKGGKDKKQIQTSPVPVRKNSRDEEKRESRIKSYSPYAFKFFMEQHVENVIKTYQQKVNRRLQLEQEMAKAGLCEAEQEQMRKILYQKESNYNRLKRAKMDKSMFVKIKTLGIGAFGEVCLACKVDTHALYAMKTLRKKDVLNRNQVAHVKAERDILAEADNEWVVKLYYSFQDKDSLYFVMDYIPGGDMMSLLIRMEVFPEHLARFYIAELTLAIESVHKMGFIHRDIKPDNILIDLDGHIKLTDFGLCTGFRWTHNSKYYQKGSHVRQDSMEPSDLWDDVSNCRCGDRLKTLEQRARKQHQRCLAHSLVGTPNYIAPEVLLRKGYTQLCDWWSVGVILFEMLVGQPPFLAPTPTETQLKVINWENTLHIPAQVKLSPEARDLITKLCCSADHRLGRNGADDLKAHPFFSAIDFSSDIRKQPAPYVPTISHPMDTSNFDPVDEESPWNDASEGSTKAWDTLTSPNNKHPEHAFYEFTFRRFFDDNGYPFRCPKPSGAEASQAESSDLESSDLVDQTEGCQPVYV", "details": "LATS2(h), read-out: Inhibition rate", "method_in_brief": "as §1"}, "[5]": {"biological_target": "T5, 380 human recombinant protein kinases (Homo sapiens, UniProt P00533)", "T5 construct": "purchased Eurofins (Celle Lévescault)", "T5 sequence (P00533 25-1210)": "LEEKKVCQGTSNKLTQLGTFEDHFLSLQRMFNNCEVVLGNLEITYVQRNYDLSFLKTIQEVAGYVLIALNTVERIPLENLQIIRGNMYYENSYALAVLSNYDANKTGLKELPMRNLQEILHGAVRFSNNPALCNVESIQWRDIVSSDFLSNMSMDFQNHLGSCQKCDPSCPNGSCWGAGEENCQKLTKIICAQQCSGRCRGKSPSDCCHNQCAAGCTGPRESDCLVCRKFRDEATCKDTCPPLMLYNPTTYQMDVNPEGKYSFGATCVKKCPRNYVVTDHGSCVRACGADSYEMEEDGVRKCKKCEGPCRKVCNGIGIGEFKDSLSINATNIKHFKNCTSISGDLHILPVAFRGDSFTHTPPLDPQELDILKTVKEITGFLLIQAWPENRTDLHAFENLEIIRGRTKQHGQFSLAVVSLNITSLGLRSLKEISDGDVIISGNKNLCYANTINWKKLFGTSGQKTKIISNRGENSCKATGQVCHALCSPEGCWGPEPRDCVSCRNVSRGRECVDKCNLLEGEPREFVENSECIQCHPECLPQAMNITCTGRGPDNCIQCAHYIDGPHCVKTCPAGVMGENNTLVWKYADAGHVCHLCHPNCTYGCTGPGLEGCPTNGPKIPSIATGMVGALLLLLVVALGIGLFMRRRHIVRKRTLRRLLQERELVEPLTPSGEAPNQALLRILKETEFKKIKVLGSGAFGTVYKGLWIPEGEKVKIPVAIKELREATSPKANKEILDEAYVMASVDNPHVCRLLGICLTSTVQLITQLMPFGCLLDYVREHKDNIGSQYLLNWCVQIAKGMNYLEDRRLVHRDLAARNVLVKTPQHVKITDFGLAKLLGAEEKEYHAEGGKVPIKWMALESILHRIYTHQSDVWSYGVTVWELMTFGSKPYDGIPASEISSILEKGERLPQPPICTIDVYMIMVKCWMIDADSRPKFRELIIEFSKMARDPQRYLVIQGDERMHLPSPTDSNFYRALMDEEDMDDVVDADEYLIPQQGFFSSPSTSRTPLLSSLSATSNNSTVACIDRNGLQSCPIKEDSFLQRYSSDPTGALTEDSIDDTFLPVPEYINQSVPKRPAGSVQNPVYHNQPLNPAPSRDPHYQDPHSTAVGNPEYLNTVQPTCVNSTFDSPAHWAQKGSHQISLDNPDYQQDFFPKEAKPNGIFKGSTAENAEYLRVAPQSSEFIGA", "details": "EGFR(h), read-out: Inhibition rate", "method_in_brief": "as §1"}, "[6]": {"biological_target": "T6, 380 human recombinant protein kinases (Homo sapiens, UniProt P54756)", "T6 construct": "purchased Eurofins (Celle Lévescault)", "T6 sequence (P54756 25-1037)": "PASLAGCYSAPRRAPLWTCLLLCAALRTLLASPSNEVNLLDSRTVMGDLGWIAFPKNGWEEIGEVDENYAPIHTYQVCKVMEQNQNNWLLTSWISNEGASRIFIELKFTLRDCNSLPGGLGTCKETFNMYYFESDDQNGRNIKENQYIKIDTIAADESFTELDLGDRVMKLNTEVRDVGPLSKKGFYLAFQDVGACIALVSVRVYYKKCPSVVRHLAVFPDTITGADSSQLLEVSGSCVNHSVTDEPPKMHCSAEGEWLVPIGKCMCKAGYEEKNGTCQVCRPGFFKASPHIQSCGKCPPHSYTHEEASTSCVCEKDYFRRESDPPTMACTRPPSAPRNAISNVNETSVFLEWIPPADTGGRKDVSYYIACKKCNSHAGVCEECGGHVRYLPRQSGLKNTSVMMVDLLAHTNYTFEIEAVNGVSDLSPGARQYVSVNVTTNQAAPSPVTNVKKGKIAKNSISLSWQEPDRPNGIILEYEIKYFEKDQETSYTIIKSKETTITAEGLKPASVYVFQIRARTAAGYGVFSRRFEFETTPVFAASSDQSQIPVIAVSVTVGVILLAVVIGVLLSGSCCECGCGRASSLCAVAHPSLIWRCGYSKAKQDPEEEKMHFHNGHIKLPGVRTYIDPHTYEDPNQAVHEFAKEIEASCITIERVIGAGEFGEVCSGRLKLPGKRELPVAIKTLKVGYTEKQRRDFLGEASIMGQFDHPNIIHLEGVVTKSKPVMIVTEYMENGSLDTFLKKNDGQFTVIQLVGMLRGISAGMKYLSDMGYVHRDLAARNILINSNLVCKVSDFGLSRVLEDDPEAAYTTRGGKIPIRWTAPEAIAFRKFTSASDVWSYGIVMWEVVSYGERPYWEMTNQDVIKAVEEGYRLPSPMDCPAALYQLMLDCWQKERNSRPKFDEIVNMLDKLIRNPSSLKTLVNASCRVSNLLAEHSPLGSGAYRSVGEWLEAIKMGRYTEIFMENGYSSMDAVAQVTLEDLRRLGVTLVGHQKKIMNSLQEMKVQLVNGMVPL", "details": "EphA5(h), read-out: Inhibition rate", "method_in_brief": "as §1"}, "[7]": {"biological_target": "T7, 380 human recombinant protein kinases (Homo sapiens, UniProt Q8TDR2)", "T7 construct": "purchased Eurofins (Celle Lévescault)", "T7 sequence (Q8TDR2 whole entry)": "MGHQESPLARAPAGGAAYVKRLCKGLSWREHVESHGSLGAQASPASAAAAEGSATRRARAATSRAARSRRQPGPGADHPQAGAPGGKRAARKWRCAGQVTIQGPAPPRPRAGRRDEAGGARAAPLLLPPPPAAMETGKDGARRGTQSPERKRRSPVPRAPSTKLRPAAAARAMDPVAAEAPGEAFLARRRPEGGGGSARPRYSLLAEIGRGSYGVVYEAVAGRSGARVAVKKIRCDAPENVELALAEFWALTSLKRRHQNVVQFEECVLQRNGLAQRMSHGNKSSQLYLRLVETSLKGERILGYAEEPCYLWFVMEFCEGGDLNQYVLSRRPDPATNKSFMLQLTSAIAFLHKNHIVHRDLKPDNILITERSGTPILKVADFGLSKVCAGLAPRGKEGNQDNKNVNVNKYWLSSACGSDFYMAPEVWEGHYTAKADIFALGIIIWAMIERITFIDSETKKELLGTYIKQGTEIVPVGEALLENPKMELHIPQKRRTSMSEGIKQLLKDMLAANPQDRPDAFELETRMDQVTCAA", "details": "CLIK1(h), read-out: Inhibition rate", "method_in_brief": "as §1"}, "[8]": {"biological_target": "T8, 380 human recombinant protein kinases (Homo sapiens, UniProt Q9HC98)", "T8 construct": "purchased Eurofins (Celle Lévescault)", "T8 sequence (Q9HC98 whole entry)": "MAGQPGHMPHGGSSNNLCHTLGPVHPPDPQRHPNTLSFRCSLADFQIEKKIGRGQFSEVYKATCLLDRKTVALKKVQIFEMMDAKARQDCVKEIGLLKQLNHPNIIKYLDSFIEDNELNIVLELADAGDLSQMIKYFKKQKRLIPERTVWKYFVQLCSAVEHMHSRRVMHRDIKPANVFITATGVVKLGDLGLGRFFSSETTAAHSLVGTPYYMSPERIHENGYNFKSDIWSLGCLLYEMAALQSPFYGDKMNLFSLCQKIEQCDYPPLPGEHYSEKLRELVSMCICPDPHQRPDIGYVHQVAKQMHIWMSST", "details": "NEK6(h), read-out: Inhibition rate", "method_in_brief": "as §1"}, "[9]": {"biological_target": "T9, 380 human recombinant protein kinases (Homo sapiens, UniProt O14578)", "T9 construct": "purchased Eurofins (Celle Lévescault)", "details": "CRIK(h), read-out: Inhibition rate", "method_in_brief": "as §1"}}}
{"compound": "C=CC(=O)Nc1cc(-c2cc(-c3cc4c([nH]3)CCNC4=O)ccn2)ccc1OC(F)(F)F", "note": "[compound 11]", "values": [{"measurement": "inhibition at 0.01 µM", "setting": "[1]; 10 nM", "result": -4, "unit": "%"}, {"measurement": "inhibition at 0.1 µM", "setting": "[1]; 100 nM", "result": 4, "unit": "%"}, {"measurement": "inhibition at 1 µM", "setting": "[1]; 1000 nM", "result": 6, "unit": "%"}, {"measurement": "inhibition at 0.01 µM", "setting": "[2]; 10 nM", "result": -1, "unit": "%"}, {"measurement": "inhibition at 0.1 µM", "setting": "[2]; 100 nM", "result": -3, "unit": "%"}, {"measurement": "inhibition at 1 µM", "setting": "[2]; 1000 nM", "result": 3, "unit": "%"}, {"measurement": "inhibition at 0.01 µM", "setting": "[3]; 10 nM", "result": -1, "unit": "%"}, {"measurement": "inhibition at 0.1 µM", "setting": "[3]; 100 nM", "result": 0, "unit": "%"}, {"measurement": "inhibition at 1 µM", "setting": "[3]; 1000 nM", "result": -4, "unit": "%"}, {"measurement": "inhibition at 0.01 µM", "setting": "[4]; 10 nM", "result": 1, "unit": "%"}, {"measurement": "inhibition at 0.1 µM", "setting": "[4]; 100 nM", "result": 8, "unit": "%"}, {"measurement": "inhibition at 1 µM", "setting": "[4]; 1000 nM", "result": 4, "unit": "%"}, {"measurement": "inhibition at 0.01 µM", "setting": "[5]; 10 nM", "result": 3, "unit": "%"}, {"measurement": "inhibition at 0.1 µM", "setting": "[5]; 100 nM", "result": -20, "unit": "%"}, {"measurement": "inhibition at 1 µM", "setting": "[5]; 1000 nM", "result": -6, "unit": "%"}, {"measurement": "inhibition at 0.01 µM", "setting": "[6]; 10 nM", "result": -1, "unit": "%"}, {"measurement": "inhibition at 0.1 µM", "setting": "[6]; 100 nM", "result": 4, "unit": "%"}, {"measurement": "inhibition at 1 µM", "setting": "[6]; 1000 nM", "result": 1, "unit": "%"}, {"measurement": "inhibition at 0.01 µM", "setting": "[7]; 10 nM", "result": 5, "unit": "%"}, {"measurement": "inhibition at 0.1 µM", "setting": "[7]; 100 nM", "result": 33, "unit": "%"}, {"measurement": "inhibition at 1 µM", "setting": "[7]; 1000 nM", "result": 65, "unit": "%"}, {"measurement": "inhibition at 0.01 µM", "setting": "[8]; 10 nM", "result": -4, "unit": "%"}, {"measurement": "inhibition at 0.1 µM", "setting": "[8]; 100 nM", "result": -5, "unit": "%"}, {"measurement": "inhibition at 1 µM", "setting": "[8]; 1000 nM", "result": -3, "unit": "%"}, {"measurement": "inhibition at 0.01 µM", "setting": "[9]; 10 nM", "result": -8, "unit": "%"}, {"measurement": "inhibition at 0.1 µM", "setting": "[9]; 100 nM", "result": 6, "unit": "%"}, {"measurement": "inhibition at 1 µM", "setting": "[9]; 1000 nM", "result": 29, "unit": "%"}]}
